Where two headings read alike, the source gives them in different places.
Columns and labels:
TRPM8 channels [1] = molecular target: T1, TRPM8 channels (Homo sapiens, UniProt Q7Z2W7); details: FL; data from Behrendt et al., 2004; cited from earlier work
[2] = test system: cold-sensitive nerve terminals of the mouse cornea; experiment: Nerve terminal impulse (NTI) activity recorded in vitro from cold-sensitive nerve terminals of the cornea
Description: To define functionally the thermal sensitivity and encoding capacity of intact cold-sensitive nerve terminals, nerve terminal impulse (NTI) activity from the cornea of wild-type mice eyes was recorded ‘in vitro’ (Brock, J. A., et al., 1998. J. Physiol 512:211-217).
J. Neurosci. 26:12512-12525, Jordt, S. E. et al. 2004. Nature 427:260-265).

[3] = test system: cold-sensitive nerve terminals of the mouse cornea; experiment: as above; remark: listed apart in the source
TRPM8 channels [4] = molecular target: T1, TRPM8 channels; details: CI; data from Bodding et al., 2007; cited from earlier work
TRPM8 channels [5] = molecular target: T1, TRPM8 channels; details: EP, cited from earlier work
[6] = test system: eyes of TRPM8(−/−) and wild type mice; experiment: Tear flow (phenol red thread) after topical application to the eye; format: in vivo, mouse; details: capsaicin 1 μM, AITC 500 μM
Description: FIG. 4. Dependence of tear secretion rate on corneal temperature. a. […] Shaded and filled columns represent tearing rate in animals at mean neutral (28.4° C.) or hot temperature (42.5° C.), respectively. The number of measures of successive columns is 35, 11, 23, 9 and 6 observations **p<0.01, ***p<0.001 Mann-Whitney test). b. Increase in tearing rate measured in wild type animals (black columns) and TRPM8−/−(grey columns) elicited by application during 60 s, of a filter paper soaked in capsaicin 1 μM (n=12 and 15) or 500 μM allyl-isothyocyanate. […] Measurements of tear secretion were performed 1 minute after removing the paper with the drug. Statistically significant differences were found with respect to baseline lacrimation, using the Wilcoxon test (*p<0.05, ***p<0.001). c. Mean tearing rate expressed as the wetted length value of the phenol red thread, measured in the eyes of 11 human volunteers at environment temperatures of 18° C., 25° C. and 43° C. that lead to corneal surface temperatures of 32.4±0.4° C.; 34.2±0.1° C. and 36.0±0.2° C. respectively.
Next, it was reasoned that if tear production is associated to the neural activity of cold thermoreceptor fibers, basal tear flow should be reduced in TRPM8(−/−) mice, in which spontaneous activity is absent.

native TRPM8 channel [7] = molecular target: T2, native TRPM8 channel (Homo sapiens, UniProt Q7Z2W7); details: CI, cited from earlier work
native TRPM8 channel [8] = molecular target: T2, native TRPM8 channel; details: EP, cited from earlier work
native TRPM8 channel [9] = molecular target: T2, native TRPM8 channel; details: read-out: IC50 menthol; SF; 20 μM menthol at 22° C.; Ortar et al. 2010; cited from earlier work
native TRPM8 channel [10] = molecular target: T2, native TRPM8 channel; details: read-out: IC50 menthol; 100 μM menthol; FL; Behrendt et al. 2004; cited from earlier work
[11] = cold, Malkia et al. 2007, read-out: IC50 cold
[12] = cold, +80 mV, Malkia et al. 2007, read-out: IC50 cold
[13] = read-out: IC50 menthol, 100 μM menthol, −70 mV, Weil 2005

T1 sequence (Q7Z2W7 whole entry): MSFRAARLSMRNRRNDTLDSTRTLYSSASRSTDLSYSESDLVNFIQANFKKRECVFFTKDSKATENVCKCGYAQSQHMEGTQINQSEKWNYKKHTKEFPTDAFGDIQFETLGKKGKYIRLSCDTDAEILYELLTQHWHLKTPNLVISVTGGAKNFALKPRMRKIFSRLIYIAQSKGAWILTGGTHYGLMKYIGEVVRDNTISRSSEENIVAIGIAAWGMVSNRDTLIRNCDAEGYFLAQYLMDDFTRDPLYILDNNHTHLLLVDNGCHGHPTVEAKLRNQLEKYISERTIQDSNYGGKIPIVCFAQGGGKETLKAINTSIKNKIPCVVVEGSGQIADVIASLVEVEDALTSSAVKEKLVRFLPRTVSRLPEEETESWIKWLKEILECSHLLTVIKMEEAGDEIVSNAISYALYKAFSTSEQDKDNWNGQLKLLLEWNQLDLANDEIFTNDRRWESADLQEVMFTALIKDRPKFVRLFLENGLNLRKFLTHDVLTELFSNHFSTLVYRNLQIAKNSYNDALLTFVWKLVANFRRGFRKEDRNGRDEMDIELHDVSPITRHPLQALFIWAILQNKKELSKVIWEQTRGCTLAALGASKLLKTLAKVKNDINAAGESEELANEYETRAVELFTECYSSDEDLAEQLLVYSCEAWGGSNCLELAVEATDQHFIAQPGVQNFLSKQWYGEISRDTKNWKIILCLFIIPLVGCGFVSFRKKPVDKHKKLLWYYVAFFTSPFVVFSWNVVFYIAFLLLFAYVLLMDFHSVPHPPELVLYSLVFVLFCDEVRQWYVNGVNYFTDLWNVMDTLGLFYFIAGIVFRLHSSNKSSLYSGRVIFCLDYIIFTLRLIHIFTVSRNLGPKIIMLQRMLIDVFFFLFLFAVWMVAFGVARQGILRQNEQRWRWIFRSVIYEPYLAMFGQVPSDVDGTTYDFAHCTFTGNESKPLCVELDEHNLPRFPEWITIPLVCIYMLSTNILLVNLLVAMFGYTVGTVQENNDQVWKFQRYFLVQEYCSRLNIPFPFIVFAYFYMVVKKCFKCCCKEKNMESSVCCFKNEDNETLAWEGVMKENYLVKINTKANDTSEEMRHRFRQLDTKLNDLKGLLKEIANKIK
T2 sequence (Q7Z2W7 whole entry): as above

## CC(C)[C@@H]1CC[C@@H](C)CC12OCC(CO)O2 (mixture of isomers) [Frescolat MGA]
TRPM8 channels [1]
  EC50: 4.8 ± 1.1 µM

## CC(C)[C@@H]1CC[C@@H](C)C[C@H]1OCC(O)CO (mixture of isomers) [Cooling Agent 10]
TRPM8 channels [1]
  EC50: 6 ± 2.2 µM

## CC(C)[C@@H]1CC[C@@H](C)C[C@H]1O (relative stereo) [Menthol]
[2]; during perfusion with menthol 50 μM, 5% before treatment
  percentage of terminals with a bursting firing pattern at 34° C.: 44%
[2]; menthol 50 μM, control 23.8±0.4
  temperature of silencing during cooling ramps: 25.2±0.4 °C
[2]; menthol 50 μM, control 26.7±0.5, n=44
  temperature at which peak frequency is reached during cooling ramps: 28.6±0.5 °C
[2]; menthol 50 μM, from 3.4±0.3 before, n=44
  spontaneous activity: 18.4±1.4 impulses/s
[2]; menthol 50 μM, n=44
  tested endings with increased spontaneous activity: 98%
[3]; 50 μM menthol perfusion, TRPM8(−/−) corneas, n=6
  trigger frequency at basal temperature of 34° C. or during cooling ramps: no increase
[3]; menthol 50 μM, TRPM8(+/−) mice, significantly less than in TRPM8(+/+)
  trigger frequency in basal temperature, cold threshold and peak frequency: enhanced

## COc1ccc(NC(=O)[C@@H]2C[C@H](C)CC[C@H]2C(C)C)cc1 (stereo in doubt) [WS-12, 2-isopropyl-5-methyl-cyclohexanecarboxylic acid (4-methoxyphenyl)-amide]
TRPM8 channels [4]
  EC50: 0.193 µM
TRPM8 channels [5]; data from Beck et al., 2007
  EC50: 0.039 µM
TRPM8 channels [5]; data from Bodding et al., 2007
  EC50: 0.68 µM

## C=CCN=C=S [AITC, allyl-isothiocyanate]
[2]; AITC 100 μM, 28 cold-sensitive nerve endings tested
  effect on spontaneous or cold-evoked activity: failed to modify the spontaneous or cold-evoked activity in 24 of them
[2]; AITC 100 μM, of 28 endings tested
  nerve endings with significant increase in trigger frequency at basal temperature: four
[6]
  tear flow: significantly increased

## CC(C)(C)c1ccc(NC(=O)N2CCN(c3ncccc3Cl)CC2)cc1 [BCTC, N-(4-tert-butyl-phenyl)-4-(3-chloropyridin-2-yl) tetrahydropyrazine-1(2H)-carboxamide]
[2]; BCTC 10 μM perfusion during 90 min
  spontaneous activity and trigger frequency of cold- and menthol-evoked discharges: decreased gradually and almost silenced
[2]; BCTC 10 μM, TRPA1(−/−) mice
  effects of BCTC on nerve ending activity in TRPA1(−/−) mice: also observed
[2]; after BCTC 10 μM removal
  decline in activity upon removal of the drug: reversed partially
Native TRPM8 channel [7]; [11]
  IC50: 0.68 ± 0.06 µM
Native TRPM8 channel [8]; [12]
  IC50: 0.54 ± 0.04 µM
Native TRPM8 channel [8]; read-out: IC50 menthol, 100 μM menthol, +80 mV, modified by Madrid 2006
  IC50: 0.34 ± 0.04 µM

## CCOC(=O)C(C)NC(=O)C1C[C@H](C)CC[C@H]1C(C)C (some centres unmarked) [CPS-369]
TRPM8 channels [4]
  EC50: 3.6 µM

## C[C@@H]1CN(c2ncccc2Cl)CCN1C(=O)Nc1ccc(C(F)(F)F)cc1 [CTPC, (2R)-4-(3-chloro-2-pyridinyl)-2-methyl-N-[4-(trifluoromethyl)phenyl]-1-pyperazine-carboxamide]
Native TRPM8 channel [8]; [13]
  IC50: 0.131 ± 0.014 µM

## Oc1cc2c(cc1O)CN(C(=S)NCCc1ccc(Cl)cc1)CCC2 [Capsazepine, N-[2-(4-chlorophenyl)ethyl]-1,3,4,5-tetrahydro-7,8-dihydroxy-2H-2-benzazepine-2-carbothioamide]
Native TRPM8 channel [7]; cold, Malkia et al. 2009, read-out: IC50 cold
  IC50: 12 ± 2 µM

## Clc1ccccc1C(c1ccccc1)(c1ccccc1)n1ccnc1 [Clotrimazole, 1-[(2-chlorophenyl)diphenylmethyl]-1H-imidazol]
Native TRPM8 channel [8]; read-out: IC50 menthol, 100 μM menthol, +50 mV, Meseguer et al. 2008
  IC50: 1.2 µM

## Nc1ccncc1 [Compound 4-AP, 4-aminopyridine]
[2]; 4-AP 100 μM
  cold threshold of the endings: no parallel changes
[2]; 4-AP 100 μM, n=9
  mean peak frequency of cold responses depressed: 39±6 % of the control value
[2]; 4-AP 100 μM, nine studied units
  units with significantly increased spontaneous activity: three out of nine

## CC12CCC(CC1)C(C)(C)O2 [Eucalyptol]
TRPM8 channels [1]
  EC50: 7700 ± 2000 µM
TRPM8 channels [5]; data from McKemy et al., 2002
  EC50: 3400 ± 400 µM

## CC(O)C(=O)O[C@@H]1C[C@H](C)CC[C@H]1C(C)C (some centres unmarked) [Frescolat ML]
TRPM8 channels [1]
  EC50: 3.3 ± 1.5 µM

## CC(CC=O)CCCC(C)(C)O (centres unmarked) [Hydroxyl-citronellal]
TRPM8 channels [1]
  EC50: 19600 ± 2200 µM

## C=C[C@@](C)(O)CCC=C(C)C [Linalool, Linallol]
TRPM8 channels [1]
  EC50: 6700 ± 2000 µM

## CC(C)[C@@H]1CC[C@@H](C)C[C@H]1NC(=O)c1ccc(-c2ccccc2)cc1 [MAD1d, N-[(1R,2S,5R)-2-Isopropyl-5-methylcyclohexyl]biphenyl-4-carboxamide]
Native TRPM8 channel [9]
  IC50: 0.02 ± 0.0024 µM

## CC1CCC(C(C)(C)O)C(O)C1 (centres unmarked) [PMD-38, p-menthane-3,8-diol]
TRPM8 channels [1]
  EC50: 31 ± 1.1 µM

## c1cnc2c(c1)ccc1cccnc12 [Phenanthroline]
Native TRPM8 channel [7]; [11]
  IC50: 100 ± 20 µM
Native TRPM8 channel [8]; [12]
  IC50: 180 ± 20 µM

## CCN(CCNC(=O)Nc1ccccc1Br)c1cccc(C)c1 [SB-452533, N-(2-bhromophenyl)-N′-(2-[ethyl(3-methylphenyl)amino]ethyl)urea]
Native TRPM8 channel [8]; [13]
  IC50: 0.571 ± 0.077 µM

## COc1ccc(CCCOC(Cn2ccnc2)c2ccc(OC)cc2)cc1 (centres unmarked) [SKF96365]
Native TRPM8 channel [7]; [11]
  IC50: 1 ± 0.2 µM
Native TRPM8 channel [7]; read-out: IC50 menthol, 100 μM menthol, modified by Madrid 2006
  IC50: 3 ± 1 µM
Native TRPM8 channel [8]; [12]
  IC50: 0.8 ± 0.1 µM

## CCNC(=O)C1CC(C)CCC1C(C)C (centres unmarked) [WS-3, N-ethyl-p-menthane-3-carboxamide]
TRPM8 channels [1]
  EC50: 3.7 ± 1.7 µM

## CC1CCC(C(C)C)C(C(=O)NC(C)(C)CO)C1 (centres unmarked) [WS-11, 2-isopropyl-5-methyl-cyclohexanecarboxylic acid (2-hydroxy-1,1-dimethyl-ethyl)-amide]
TRPM8 channels [5]; data from Beck et al., 2007
  EC50: 6.25 µM

## CC1CCC(C(C)C)C(C(=O)NC(C)(C)C)C1 (centres unmarked) [WS-14, 2-isopropyl-5-methyl-cyclohexanecarboxylic acid tert-butylamide]
TRPM8 channels [5]; data from Beck et al., 2007
  EC50: 21.2 µM

## CC1CCC(C(C)C)C(C(=O)OCC(O)CO)C1 (centres unmarked) [WS-30, 2-isopropyl-5-methyl-cyclohexanecarboxylic acid ester 2,3-dihydroxy-propyl]
TRPM8 channels [4]
  EC50: 5.6 µM

## CCCCCCCP(=O)(C(C)CC)C(C)CC (centres unmarked) [WS-148, 1-(di-sec-butyl-phosphinoyl)-heptane]
TRPM8 channels [4]
  EC50: 4.1 µM

## COc1cc(CNC(=O)CCCC/C=C/C(C)C)ccc1O [capsaicin]
[2]; 100 nM capsaicin, wild-type mice
  cold-sensitive endings that responded: 65%
[6]
  tear flow: significantly increased
[3]; capsaicin 100 nM, TRPM8(−/−) corneas, six units tested
  impulse discharge evoked in active units: evoked a few impulses in two endings (5 and 8 impulses, respectively) and a vigorous, discharge lasting more than 30 s in another

## CC(C)(C)c1ccc(NC(=S)N2CCN(c3ncccc3Cl)CC2)cc1 [thio-BCTC, N-(4-tert-butyl-phenyl)-4-(3-chloropyridin-2-yl) tetrahydropyrazine-1(2H)-(thio)carboxamide]
Native TRPM8 channel [10]
  IC50: 3.5 ± 1.1 µM
